From patent US9968596B2 (Celgene Corporation, priority 2014, dated 2018)
Counter-ions that a name gives are not always drawn.

The compounds below were run on KG-1 cell line (assay: Effect of test compounds on KG-1 cell proliferation (Cell Titer-Glo viability, 72 hours)). Conditions: Homo sapiens, read-out: FCA Prolif Cell TiterGlo KG-1 72 h (IC50).
Type: cell-based
Procedure: The anti-proliferative activity of the test compound was evaluated on KG-1 cell line (American Type Culture Collection [ATCC]: catalogue number ATCC® CCL-246™) at 72 hours post-treatment. The seeding density for KG-1 was optimized to ensure assay linearity in 384-well plates.
Increasing concentrations of the test compound (0.5 nM to 10 μM) were spotted in a 10-point serial dilution fashion (3-fold dilution) in duplicate via an acoustic dispenser (EDC ATS-100) into an empty 384-well plate. The dimethyl sulfoxide (DMSO) concentration was kept constant for a final assay concentration of 0.1% DMSO. Prior to testing, KG-1 cells were grown in RPMI-1640 (Roswell Park Memorial Institute—1640) medium with 10% FBS (fetal bovine serum: HyClone) and expanded in culture flasks to provide sufficient amounts of starting material. Cells were then diluted to 5000 cells per well, in a 50 μL volume and added directly to the compound-spotted 384-well plates. Cells were allowed to grow for 72 hours in 5% CO2 at 37° C. At the time when exposure of cells to compound began (t0), initial viable cell number was assessed via Cell Titer-Glo® Luminescent Cell Viability Assay at a 1 vol:2 vol ratio according to manufacturer's instructions (Promega Corporation, Madison, Wis.) by quantifying the level of luminescence generated by adenosine-5′-triphosphate (ATP) present in viable cells. After 72 hours, cell viability of t-treated cells was assessed via Cell Titer-Glo® and read for luminescence.

Row | Compound | IC50 [nM]
1 | COc1ccc(C(F)(F)C(=O)NCc2ccc3c(c2)CN(C2CCC(=O)NC2=O)C3=O)cc1 (centres unmarked) [Example 3] | 100 to 10000
2 | O=C1CCC(N2Cc3cc(CNC(=O)C(F)(F)c4ccc(F)cc4)ccc3C2=O)C(=O)N1 (centres unmarked) [Example 5] | 10 to 50
3 | O=C1CCC(N2Cc3cc(CNC(=O)C(F)(F)c4ccccc4Cl)ccc3C2=O)C(=O)N1 (centres unmarked) [Example 8] | 100 to 10000
4 | O=C1CCC(N2Cc3cc(CNC(=O)C(F)(F)c4c(F)cccc4F)ccc3C2=O)C(=O)N1 (centres unmarked) [Example 14] | 100 to 10000
5 | Cc1ccccc1C(F)(F)C(=O)NCc1ccc2c(c1)CN(C1CCC(=O)NC1=O)C2=O (centres unmarked) [Example 15, N-((2-(2,6-dioxopiperidin-3-yl)-1-oxoisoindolin-5-yl)methyl)-2,2-difluoro-2-(o-tolyl)acetamide] | 10 to 50
6 | CC(C)Oc1ccc(C(F)(F)C(=O)NCc2ccc3c(c2)CN(C2CCC(=O)NC2=O)C3=O)cc1 (centres unmarked) [Example 22] | 10 to 50
7 | O=C1CCC(N2Cc3cc(CNC(=O)C(F)(F)c4ccc(F)c(F)c4)ccc3C2=O)C(=O)N1 (centres unmarked) [Example 23] | 100 to 10000
8 | O=C1CCC(N2Cc3cc(CNC(=O)C(F)(F)c4cccc(F)c4)ccc3C2=O)C(=O)N1 (centres unmarked) [Example 24] | 100 to 10000
9 | O=C1CCC(N2Cc3cc(CNC(=O)C(F)(F)C4(O)CCCC4)ccc3C2=O)C(=O)N1 (centres unmarked) [Example 66] | 100 to 10000
10 | CC(C)(F)c1ccc(C(F)(F)C(=O)NCc2ccc3c(c2)CN(C2CCC(=O)NC2=O)C3=O)cc1 (centres unmarked) [Example 92] | 50 to 100
11 | CC(C)(C)c1ccc(C(F)(F)C(=O)NCc2ccc3c(c2)CN(C2CCC(=O)NC2=O)C3=O)nc1 (centres unmarked) [Example 96, hydrochloride] | 10 to 50
12 | O=C1CCC(N2Cc3cc(CNC(=O)C(F)(F)c4ccc(C5CC5)cn4)ccc3C2=O)C(=O)N1 (centres unmarked) [Example 97] | 100 to 10000
13 | O=C1CCC(N2Cc3cc(CNC(=O)C(F)(F)c4ccc(F)cc4OC(F)(F)F)ccc3C2=O)C(=O)N1 (centres unmarked) [Example 100] | 50 to 100
14 | CS(=O)(=O)c1cccc(C(F)(F)C(=O)NCc2ccc3c(c2)CN(C2CCC(=O)NC2=O)C3=O)c1 (centres unmarked) [Example 103] | 100 to 10000
15 | Nc1ncc(C(F)(F)C(=O)NCc2ccc3c(c2)CN(C2CCC(=O)NC2=O)C3=O)cn1 (centres unmarked) [Example 104] | 100 to 10000
16 | Cn1nc(C(F)(F)C(=O)NCc2ccc3c(c2)CN(C2CCC(=O)NC2=O)C3=O)ccc1=O (centres unmarked) [Example 107] | 100 to 10000
17 | CN1CCN(c2cccc(C(F)(F)C(=O)NCc3ccc4c(c3)CN(C3CCC(=O)NC3=O)C4=O)c2)CC1 (centres unmarked) [Example 114, hydrochloride] | 100 to 10000
